The source made the active and inactive calls.
Legend:
[1] = target: T1, Tyrosine-protein phosphatase non-receptor type 22 (Homo sapiens, UniProt Q9Y2R2); assay type: functional
T1 sequence (Q9Y2R2 whole entry): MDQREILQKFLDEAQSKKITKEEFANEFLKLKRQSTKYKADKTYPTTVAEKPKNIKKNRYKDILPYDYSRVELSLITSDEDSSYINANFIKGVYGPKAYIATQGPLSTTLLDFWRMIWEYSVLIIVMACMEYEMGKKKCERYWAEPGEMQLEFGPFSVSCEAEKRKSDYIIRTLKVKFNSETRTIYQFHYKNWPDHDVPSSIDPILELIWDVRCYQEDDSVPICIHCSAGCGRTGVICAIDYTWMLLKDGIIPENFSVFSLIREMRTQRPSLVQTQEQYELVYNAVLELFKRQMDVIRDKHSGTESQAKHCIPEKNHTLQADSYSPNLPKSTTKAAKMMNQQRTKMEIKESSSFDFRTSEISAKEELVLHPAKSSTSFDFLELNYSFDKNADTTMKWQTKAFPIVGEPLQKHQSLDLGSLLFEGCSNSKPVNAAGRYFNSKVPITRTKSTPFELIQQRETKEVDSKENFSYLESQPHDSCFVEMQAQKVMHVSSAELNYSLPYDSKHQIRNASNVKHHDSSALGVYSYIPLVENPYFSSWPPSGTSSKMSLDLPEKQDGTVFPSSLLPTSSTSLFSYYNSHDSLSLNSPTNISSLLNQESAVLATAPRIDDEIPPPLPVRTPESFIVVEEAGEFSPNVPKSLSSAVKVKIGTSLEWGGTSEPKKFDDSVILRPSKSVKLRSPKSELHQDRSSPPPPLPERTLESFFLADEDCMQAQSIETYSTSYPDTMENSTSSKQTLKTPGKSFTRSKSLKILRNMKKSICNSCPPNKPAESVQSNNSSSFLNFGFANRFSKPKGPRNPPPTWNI

[2] = target: T2, Tyrosine-protein phosphatase non-receptor type 7 (Homo sapiens, UniProt P35236); assay type: functional
T2 sequence (P35236 whole entry): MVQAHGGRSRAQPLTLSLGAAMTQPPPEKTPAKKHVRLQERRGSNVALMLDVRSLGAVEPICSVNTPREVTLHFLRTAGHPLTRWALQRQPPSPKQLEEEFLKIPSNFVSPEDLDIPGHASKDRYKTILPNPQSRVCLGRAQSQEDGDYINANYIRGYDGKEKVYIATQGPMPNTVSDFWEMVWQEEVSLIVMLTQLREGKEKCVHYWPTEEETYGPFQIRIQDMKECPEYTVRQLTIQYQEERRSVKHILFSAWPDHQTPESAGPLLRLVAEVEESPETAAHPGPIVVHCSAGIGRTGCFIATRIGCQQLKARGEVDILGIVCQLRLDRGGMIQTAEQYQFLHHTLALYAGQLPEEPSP

[3] = target: T1, Tyrosine-protein phosphatase non-receptor type 22; assay type: functional; remark: listed apart in the source
[4] = target: T3, Carboxy-terminal domain RNA polymerase II polypeptide A small phosphatase 1 (Homo sapiens, UniProt Q9GZU7); experiment: inhibitors of CTDSP1, concentration-response testing, biochemical assay, absorbance-based, actives from ultra-high-throughput screening (AID 540297); assay type: functional
T3 sequence (Q9GZU7 whole entry): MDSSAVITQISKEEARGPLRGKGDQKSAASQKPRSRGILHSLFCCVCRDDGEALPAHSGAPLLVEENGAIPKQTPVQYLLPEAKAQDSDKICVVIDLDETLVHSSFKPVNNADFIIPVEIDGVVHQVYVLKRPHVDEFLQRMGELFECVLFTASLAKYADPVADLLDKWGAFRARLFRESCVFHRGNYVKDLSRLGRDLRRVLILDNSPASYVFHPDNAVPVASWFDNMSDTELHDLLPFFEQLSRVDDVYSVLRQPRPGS

[5] = target: T1, Tyrosine-protein phosphatase non-receptor type 22; experiment: inhibitors of LYP phosphatase, biochemical, fluorescence intensity, uHTS (AID 1779)
Vero [6] = experiment: cytotoxicity of synthesized analogs in Vero 76, SAR follow-up, cytotoxicity control for West Nile virus antiviral project, Vero 76 cells (AID 2414); assay type: functional; settings: Chlorocebus sabaeus
Vero [7] = experiment: cytotoxicity of synthesized analogs in Vero cells, SAR follow-up, cytotoxicity control for West Nile virus antiviral project, cell-based, set II (AID 2402); assay type: functional; settings: Chlorocebus sabaeus
[8] = A Cell Based Assay for the Identification of Probe candidate Compounds with Anti- Venezuelan Equine Encephalitis virus. [Related pubchem assays: 2409, 2419, 1621, 2238, 2405, 2024, 2065, 2402, 2414, 1635, 1650, 2244 ]; assay type: functional
Vero [9] = experiment: West Nile virus CPE inhibition, SAR follow-up, cell-based, synthesized analogs (AID 2238); assay type: functional; settings: Chlorocebus sabaeus
Vero [10] = experiment: Vero E6 cell cytotoxicity, SAR follow-up, cytotoxicity control for West Nile virus antiviral project, synthesized analogs (AID 2244); assay type: functional; settings: Chlorocebus sabaeus
Vero [11] = experiment: West Nile virus antiviral activity, cell-based, CPE readout (AID 1621); assay type: functional; settings: Chlorocebus sabaeus
Vero [12] = experiment: West Nile virus cytopathic effect inhibition, cell-based (AID 2419); assay type: functional; settings: Chlorocebus sabaeus
[13] = target: T4, Long-chain-fatty-acid--AMP ligase FadD28 (Mycobacterium tuberculosis, UniProt P9WQ59); experiment: Fluorescence polarization aasay to screen for inhibitors that compete for the binding of FadD28 to a bisubstrate Measured in Biochemical System Using Plate Reader - 2147-01_Inhibitor_Dose_CherryPick_Activity.; assay type: functional, Mycobacterium tuberculosis H37Rv
T4 sequence (P9WQ59 whole entry): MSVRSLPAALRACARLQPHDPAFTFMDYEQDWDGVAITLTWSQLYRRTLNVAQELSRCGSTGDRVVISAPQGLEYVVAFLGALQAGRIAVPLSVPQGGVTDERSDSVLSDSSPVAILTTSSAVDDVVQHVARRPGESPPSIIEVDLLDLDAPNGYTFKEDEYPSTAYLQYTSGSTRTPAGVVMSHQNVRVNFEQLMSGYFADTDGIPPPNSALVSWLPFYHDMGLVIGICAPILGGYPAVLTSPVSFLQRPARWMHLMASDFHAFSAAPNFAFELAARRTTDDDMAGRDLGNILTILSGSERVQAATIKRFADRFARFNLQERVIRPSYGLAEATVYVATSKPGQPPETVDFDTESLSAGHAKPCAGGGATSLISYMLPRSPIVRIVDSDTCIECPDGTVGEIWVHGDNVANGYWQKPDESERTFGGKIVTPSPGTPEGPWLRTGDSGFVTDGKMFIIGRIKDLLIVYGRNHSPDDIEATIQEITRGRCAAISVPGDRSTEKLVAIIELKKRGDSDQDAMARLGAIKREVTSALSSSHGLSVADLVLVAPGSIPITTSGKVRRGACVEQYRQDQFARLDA

[14] = target: Envelope glycoprotein gp160 (Human immunodeficiency virus 1, UniProt Q6QLK5); experiment: inhibitors of HIV fusion peptide binding, primary screen, biochemical, uHTS, fluorescence dequenching (AID 1986)
Chain of Envelope glycoprotein gp160 (Q6QLK5 whole entry, the tested form may be a part): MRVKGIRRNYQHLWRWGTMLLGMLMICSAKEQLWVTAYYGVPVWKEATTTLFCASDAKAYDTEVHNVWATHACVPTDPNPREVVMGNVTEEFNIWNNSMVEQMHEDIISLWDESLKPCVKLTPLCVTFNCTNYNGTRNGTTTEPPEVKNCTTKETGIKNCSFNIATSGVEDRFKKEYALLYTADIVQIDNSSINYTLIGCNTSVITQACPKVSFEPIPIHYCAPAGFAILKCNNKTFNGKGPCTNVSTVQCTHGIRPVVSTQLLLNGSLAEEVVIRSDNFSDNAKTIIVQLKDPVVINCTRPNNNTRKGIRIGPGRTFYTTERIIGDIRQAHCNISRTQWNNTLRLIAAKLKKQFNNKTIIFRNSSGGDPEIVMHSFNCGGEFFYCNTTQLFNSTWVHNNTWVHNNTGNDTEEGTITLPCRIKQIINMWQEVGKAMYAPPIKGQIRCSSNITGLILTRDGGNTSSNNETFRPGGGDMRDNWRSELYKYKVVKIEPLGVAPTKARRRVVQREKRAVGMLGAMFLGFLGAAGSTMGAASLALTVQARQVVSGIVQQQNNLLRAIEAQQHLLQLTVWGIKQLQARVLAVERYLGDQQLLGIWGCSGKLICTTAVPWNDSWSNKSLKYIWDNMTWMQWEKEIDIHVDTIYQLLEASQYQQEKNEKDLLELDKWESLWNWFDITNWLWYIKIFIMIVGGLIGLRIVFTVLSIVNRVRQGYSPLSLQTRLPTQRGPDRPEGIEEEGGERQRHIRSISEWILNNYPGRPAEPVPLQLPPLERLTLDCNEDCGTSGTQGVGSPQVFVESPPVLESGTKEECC

[15] = tested on: Streptococcus sp. 'group A'; experiment: growth inhibition of control SK(-) GAS strain, dose response, counter-screen for streptokinase expression inhibitor project, luminescence, kanamycin, BacTiterGlo, confirmation (AID 1900); assay type: functional, organism-based
Streptococcus = experiment: Group A Streptococcus viability loss, dose response, counter-screen for streptokinase expression inhibitor project, luminescence, BacTiterGlo (AID 1915); assay type: functional, organism-based;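 note: potency for reduction of bacterial viability or growth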
[16] = HIV-1 Env-mediated cell fusion inhibitors, dose response, CCR5-tropic Env (AID 2279); assay type: functional

CCOc1cc(/C=C2/NC(=O)NC2=O)cc(Br)c1OCc1ccc(C(=O)O)cc1
active: IC50 [1] 2.39 µM | IC50 [2] 4.2 µM | IC50 [3] 5.76 µM | IC50 [4] 5.9 µM | IC50 [5] 8.82 µM

CN(C)CCCN1c2ccc([N+](=O)[O-])cc2CCc2cc([N+](=O)[O-])ccc21
active: CC50 (Vero [6]) 18.5 µM | CC50 (Vero [7]) 15.4 µM | IC50 [8] 8.59 µM | IC50 (Vero [9]) 13.9 µM | CC50 (Vero [10]) 21.6 µM | IC50 (Vero [11]) 10.8 µM | IC50 (Vero [12]) 11.4 µM

Oc1cc(-c2ccccc2)nc2c(-c3ccccc3)c(C(F)(F)F)nn12
active: AC50 [13] 54.1 µM | IC50 [14] 17.5 µM | EC50 [15] 3.47 µM | EC50 (Streptococcus) 4.84 µM | IC50 [16] > 50 µM

— ChEMBL document CHEMBL1201862, “PubChem BioAssay data set” (2004)
